Source: patent US9375457B2, “Composition comprising Rhizoma coptidis, Cortex phellodendri and Fructus gardeniae and for treating neurodegenerative diseases” (Hong Kong Baptist University, priority 2013, dated 2016)

Legend:
[1] = test system: intracellular Aβ1-40 and Aβ1-42 in N2a-SwedAPP cells; assay: Sandwich ELISA of intracellular Aβ in N2a-SwedAPP cells; assay type: cell-based, murine; set-up: key to Aβs (overall influence): ↓ decreased; ↑ increased; ? unchanged
Method: N2a-SwedAPP cells were seeded at a density of 4×10^5/mL in DMEM medium in a 6-well plate and cultured for 1 day. After transfer, cells were treated with different doses of RC, CP, FG and RS for 48 hours, then the extracellular media were collected for detection of sAPPα and sAPPβ-sw, and cells were harvested to quantify F1-APP and β-actin by Western blot analysis, as described previously by Durairajan et al. For intracellular APP, APP-CTFs and Aβ preparation, cells were washed with ice-cold PBS twice and solubilized in ice-cold RIPA buffer with protease inhibitor cocktail added. Lysates were collected and centrifuged at 16,000×g for 15 minutes at 4° C. The resulting supernatants were collected, and their protein concentrations were determined with bicinchoninic acid (BCA) protein assay reagent (Thermo Scientific, IL, USA). […] The conditioned media were standardized to total cell lysate protein.
The levels of intracellular Aβ1-40 and Aβ1-42 are quantified by using a sandwich ELISA as previously described by Durairajan et al., 2011 with minor modification. Equal amounts of cell or brain lysates are used for Aβ quantification by sandwich ELISA. The monoclonal antibody 6E10 is used as the capture antibody by adding to ELISA plates (0.2 μg diluted in 0.1 M Na2CO3 (pH 9.6) per well) and incubated overnight at 4° C. The plates are washed with PBS (0.05% Tween 20) and blocked with 4% BlockAce (Serotec, Raleigh, N.C., USA) for 2 hours at room temperature. Equilibrated protein lysates from each treatment (a 100 μL volume is adjusted in all treatment groups by using PBS) are applied in duplicate and incubated at room temperature for 2 hours with constant rotation at 30 rpm. Biotinylated monoclonal anti-Aβ40 5C3 (50 ng per well) and biotinylated monoclonal 8G7 (50 ng per well) antibodies are used for detection of Aβ1-40 and Aβ1-42, respectively, and are diluted in 1% BlockAce and incubated for 2 hours at room temperature. Plates are thoroughly washed with PBS (0.05% Tween 20), and streptavidin conjugated HRP is added for 1 hour at room temperature. Finally the plates are washed four times with PBST before adding the substrate TMB for 30 minutes. Absorbance at 450 nm is measured in duplicate wells after addition of 2 M H2SO4. All ELISA experimental data are from three different days. Synthetic Aβ40 and Aβ42 peptides are used for construction of calibration curves, and Aβ is measured in lysates.

[2] = test system: N2a-SwedAPP cells; assay: MTT viability assay in N2a-SwedAPP cells; assay type: cell-based, murine; details: mouse, 48 h
Method: N2a-SwedAPP cells were obtained from Dr. Gopal Thinakaran (University of Chicago, Chicago, Ill., USA). N2a-SwedAPP cells were cultured in Dulbecco's modified Eagle's medium (DMEM) and OPTI-MEM medium in a 1:1 ratio with 5% FBS, 50 μg/mL penicillin, 50 μg/mL streptomycin and 200 μg/mL G418 as previously described in Thinakaran G, Teplow D B, Siman R, Greenberg B, Sisodia S S (1996) Metabolism of the “Swedish” amyloid precursor protein variant in neuro2a (N2a) cells. J Biol Chem 271: 9390-9397. N2a-SwedAPP cells were incubated at 37° C. in a 5% CO2/95% humidity incubator. Cells were seeded 24 hours prior to the treatments. When growth reached close to 90% of confluence, cells were transferred into DMEM with 1% FBS for loading extracts. The final concentration of DMSO in all experiments was 0.1%, and this concentration caused no cytotoxicity.
For the viability assay, N2a-SwedAPP cells were seeded in a 96-well plate (7000 cells/well and 5000 cells/well). […] Finally, optical intensity was measured using a BioRad plate reader at 570 nm and a reference of 620 nm. […]
N2a-SwedishAPP cells are widely used as a cellular model of Alzheimer's disease, because they express a high level of APP and Aβ. The effects of HLJDT and its components on viability of N2SwedAPP cells are monitored by using the MTT assay. […]

[3] = Baicalein concentration in brain of TgCRND8 mice; assay type: in vivo

Compound: O=c1cc(-c2ccccc2)oc2cc(O)c(O)c(O)c12 [baicalein]
- augmentation of intracellular Aβ1-40, fold of basal level ([1]; 12.5 μM, 48 h): 1.23 fold
- augmentation of intracellular Aβ1-42, fold of basal level ([1]; 12.5 μM, 48 h): 1.38 fold
- Aβs (overall influence) ([1]; N2a-SwedAPP cells): ↑
- non-toxic concentration (highest concentration that shows greater than 90% cell viability) [2]: 12.5 µM
- mean concentration of baicalein in the brain ([3]; TgCRND8 mice, orally administered 25 mg/kg): 120 ± 10 ng/mL
- difference in baicalein levels in the brain between doses ([3]; mouse, in vivo): no difference
